In the NIST ThermoML archive (doi:10.1016/j.fluid.2007.05.013):
Numbers after ± are expanded uncertainties.

Details: Liquid; for mass density: 298.15 K, 101.33 kPa

Compound: C1COCO1 [1,3-dioxolane]
- mass density: 1059 ± 0.9 kg/m3
- vapor or sublimation pressure (348.8 K): 101.33 ± 2 kPa

Compound: C1COCCO1 [1,4-dioxane]
- mass density: 1027.9 ± 0.7 kg/m3
- vapor or sublimation pressure (374.47 K): 101.33 ± 2 kPa

Compound: CCCCCCCl [1-chlorohexane]
- mass density: 873.5 ± 1 kg/m3
- vapor or sublimation pressure (408.07 K): 101.33 ± 2 kPa

Compound: C1CCOC1 [tetrahydrofuran]
- mass density: 882 ± 0.5 kg/m3
- vapor or sublimation pressure (339.12 K): 101.33 ± 2 kPa

Compound: C1CCOCC1 [tetrahydropyran]
- mass density: 878.8 ± 1 kg/m3
- vapor or sublimation pressure (361.23 K): 101.33 ± 2 kPa
